Test results: patent US9688653B2, “Ethoxyphenyl thienyl compounds and methods for the treatment of bacterial infections” (Duke University, priority 2013, dated 2017)
“Also recorded” adds a separate entry of the source.

Legend:
K1 capsule of UTI89 = test: Secondary assay 3: orcinol assay for released K1 capsule polysaccharide; format: cell-based, Escherichia coli; conditions: 100 μM, K1 strain UTI89
Method: E. Secondary Assay 3: Orcinol Secondary Screening for Inhibitors of Bacterial Capsule Biogenesis.
Purpose: This assay was performed only on the probe candidate. […] The biochemical determination of cell-surface associated capsule was performed using UTI89 or the Delta Region I and Delta Region II capsule mutant bacterial strains.
Purpose: This assay was performed only on the probe candidate. […] The biochemical determination of cell-surface associated capsule was performed using UTI89 or the delta Region I and Region II capsule mutant bacterial strains.
Assay Description: The biochemical measurement of cell-surface associated capsule was performed. UTI89 or capsule mutants were grown in culture tubes with and without the test compound (50 μM). The cultures were centrifuged, and the cell pellets were washed in PBS and resuspended in Tris buffer, pH5. […] Released polysaccharide was harvested by separation from whole bacteria by centrifugation followed by deproteination with phenol/chloroform and precipitation with ethanol. The precipitated material was subjected to acid hydrolysis (pH 2 at 80° C. for 1 hr) and incubated with orcinol, which reacts with periodic intermediates to produce a violet color quantified at OD 570 (3) Inhibitors reducing or abrogating surface encapsulation yielded low orcinol levels similar to the capsule export and synthesis mutants (Region I and II). The positive control drug C7 (100 μM final well concentration) was used in this screen.
Endpoint Read: The samples were read at ambient temperature from the bottom for absorbance at A570 in a BioTek Quantplate reader and the degree of orcinol-reactive material was determined based on the absorbance compared to a wild-type encapsulated strain (UTI89) and a standard curve using purified sialic acid.
Orcinol assay for released capsule material. Orcinol reactivity was used as a biochemical confirmation of altered extracellular capsule after compound treatment. UTI89 or an isogenic capsule mutant was grown in 100 μM of test compound or 1% DMSO. The assay was performed as previously described. The molecule C7 (100 μM final concentration) was used as a positive control. The assay was performed 3 times with replicate samples.

[1] = test system: Bladder carcinoma 5637 cells; conditions: earlier report; cited from earlier work
UPEC K1 strain UTI80 = conditions: cited from earlier work
E. coli K1 strain UTI89 [2] = test: microbe, parasite or virus in culture; conditions: for IC50: Escherichia coli; for Selectivity: five probe analogues
Outline: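 UTI89 cultures in LB with 0.5% DMSO were preincubated 2 hr at 37 °C with compounds (100 μM in screen), then with K1F phage a further 2 hr. Viability was read as Alamar Blue fluorescence. Phage-lysis inhibition is relative to plate bacterial controls; IC50 by 4-parameter fit locked at 0 and 100.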

E. coli K1 strain UTI89 [3] = test: Secondary assay 2: T7 phage-mediated lysis assay; format: cell-based, Escherichia coli; conditions: Escherichia coli, five probe analogues; read-out: T7 phage IC50
Outline: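 E. coli K1 UTI89 shaken 1.5 h with compound (100–0.39 μM, quadruplicate, 1% DMSO), initial OD600 taken to flag growth effects without phage. T7 phage, whose entry is blocked by K capsule, then added; OD600 lysis read after 3 h at 37 °C, greater lysis indicating less capsule.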

[4] = Cytotoxicity counterscreen, CellTiter Glo, 72 hr; format: cell-based, human; conditions: human, bladder carcinoma 5637 cells (ATCC HTB-9), five probe analogues
Outline: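 5637 bladder carcinoma cells were exposed to a 10-point compound series (300-0.58 μM, 0.5% DMSO) for 72 h. Viability was measured by CellTiter-Glo luminescence, and TC50 (CC50) was derived, with Hyamine as cytotoxic control.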

[5] = target: norepinephrine transporter (Homo sapiens, UniProt P23975); test: LeadProfilingScreen, single target; format: binding; conditions: duplicate
Sequence of norepinephrine transporter (P23975 whole entry): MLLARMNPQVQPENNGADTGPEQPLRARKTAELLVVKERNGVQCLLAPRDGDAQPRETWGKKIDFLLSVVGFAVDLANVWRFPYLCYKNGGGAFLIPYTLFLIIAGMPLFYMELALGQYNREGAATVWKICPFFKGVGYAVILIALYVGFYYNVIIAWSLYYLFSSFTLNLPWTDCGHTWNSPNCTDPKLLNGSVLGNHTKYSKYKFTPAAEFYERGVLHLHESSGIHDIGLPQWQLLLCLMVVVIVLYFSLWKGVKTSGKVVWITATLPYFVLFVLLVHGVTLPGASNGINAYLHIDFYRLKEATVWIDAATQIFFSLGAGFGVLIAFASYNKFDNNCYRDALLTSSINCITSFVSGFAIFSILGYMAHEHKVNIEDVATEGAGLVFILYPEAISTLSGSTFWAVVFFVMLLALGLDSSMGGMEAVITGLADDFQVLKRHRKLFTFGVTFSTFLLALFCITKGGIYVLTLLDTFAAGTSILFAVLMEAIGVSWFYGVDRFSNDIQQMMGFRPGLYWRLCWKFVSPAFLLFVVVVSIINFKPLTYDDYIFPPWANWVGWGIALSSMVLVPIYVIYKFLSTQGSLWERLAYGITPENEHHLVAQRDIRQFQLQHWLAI
Method: Evaluation of off-target effects. Off target effects of lead molecules of interest were evaluated using the LeadProfilingScreen commercial assay at Eurofins Panlabs (Bothell, Wash.). Reference standards were run as an integral part of each assay to ensure the validity of the results obtained. Assay results are presented as the percent inhibition of specific binding or activity (for n=2 replicates) for the probe compound tested at a concentration of 10 μM. Details regarding the individual assays and methods are provided in Supplementary Information File 51.
DU003 & DU011 are biologically selective. DU003 and DU011 were submitted to the Eurofins Panlabs LeadProfilingScreen to assess off-target pharmacology 1421. […] In review of PubChem data, DU011 (CID23602075) is reported to have shown activity in only 21 of 467 (4.5%, as of Sep. 5, 2013) bioassays in which it was tested (assays unrelated to the current project). Per PubChem, DU003 (CID18109210) is reported to have shown activity in only 5 of 427 (1.2%, as of Sep. 5, 2013) bioassays in which it was tested (assays unrelated to the current project).

E. coli UTI89 = test: Human serum sensitization (MTT); format: cell-based, Escherichia coli; conditions: 50 μM compound, p=0.0067 versus control
Method: Human serum sensitization by capsule inhibitor treatment. Overnight cultures of UTI89 were diluted 1:100 and grown with or without 50 μM compound for approximately 1.5 hrs on a shaker at 37° C. Then 25 μL of anonymous, non-identified, sterile filtered pooled human serum (purchased from Equitech Bio) was added per 100 μL of growth media. This was returned to the shaker for another 3 hrs, after which 20 μL of 5 mg/mL MTT (3-(4,5-Dimethylthiazol-2-yl)-2,5-diphenyltetrazolium bromide) was added. MTT is reduced to purple formazan by bacterial reductase enzymes, thus measuring viable bacteria. This was shaken for another 15 min at 37° C. The sample was spun to remove the growth media, followed by two washes with PBS. The formazan crystals were dissolved in 100 μL of DMSO and measured at OD570.

K1 antigen of UTI89 = test: K1 antigen whole-cell dot blot with anti-K1 serum; format: cell-based, Escherichia coli; conditions: 100 μM
Method: K1 antigen dot blot. K1 antigen was detected by dot blot assays of culture extracts probed with anti-K1 H46 serum. The assay was performed as previously described. The experiment was repeated twice with similar results, and a representative dot blot is shown.

panel of 68 receptors = conditions: 10 μM, duplicate; upper bound over all targets
[6] = Thiol stability (glutathione, DTT); format: physicochemical; conditions: 10 μM compound, PBS pH 7.4, room temperature, eight hours
Method: Compounds were dissolved at 10 μM in PBS at pH 7.4 (1% DMSO) and incubated at room temperature with either no thiol source as a negative control, 50 μM glutathione (GSH), or 50 μM dithiothreitol (DTT). The mixtures were sampled every hour for eight hours and analyzed by RP HPLC/UV/HRMS. The analytical RP HPLCUV/HRMS system utilized for the analysis was a Waters Acquity system with UV-detection and mass-detection (Waters LCT Premier). The analytical method conditions included a Waters Acquity HSS T3 C18 column (2.1×50 mm, 1.8 um) and elution with a linear gradient of 1% water to 100% CH3CN at 0.6 mL/min flow rate. Peaks on the 214 nm chromatographs were integrated using the Waters OpenLynx software. Absolute areas under the curve were compared at each time point to determine relative percent compound remaining. The masses of potential adducts were searched for in the final samples to determine if any detectable adduct formed. All samples were prepared in duplicate (FIG. 5). Ethacrynic acid, a known Michael acceptor, was used as a positive control. If solubility of the compound was an issue at 10 μM, PBS was substituted with PBS with 50% acetonitrile (35).

[7] = read-out: K1 phage IC50 (inhibition of K1 capsule formation)
[8] = read-out: K1 phage IC50, five probe analogues

Compound | Reduction of orcinol-reactive polysaccharides on surface of bacteria (K1 capsule of UTI89) | IC50 (E. coli K1 strain UTI89 [2]; [7]) | IC50 (E. coli K1 strain UTI89 [2]; [8]) | Selectivity (E. coli K1 strain UTI89 [2]) | IC50 (E. coli K1 strain UTI89 [3]) | IC50 at 72 h [4] | other results
O=C(O)c1cc(-c2ccc(-c3ccccc3)cc2)nc2cc3ccccc3cc12 [C7, 2-(4-phenylphenyl)-benzo[g]quinoline-4-carboxylic acid] | ~80% |  |  |  |  |  | Toxicity to cultured bladder epithelial cells [1]: lacks obvious toxicity; Concentration at which the inhibitory effect reaches saturation (UPEC K1 strain UTI80): approximately 25 μM; IC50 (UPEC K1 strain UTI80; read-out: Concentration giving approximately 50% inhibition of K1F phage lysis (IC50)): 12.5 to 25 µM
COc1ccc(-c2cc(NC(=O)c3ccc(Br)o3)c(C(=O)O)s2)cc1 [CID 53470446, 3-(5-Bromofuran-2-carboxamido)-5-(4-methoxyphenyl)thiophene-2-carboxylic acid] |  | 11.1 µM | 11.1 ± 3.33 µM | 4.55 | 1.24 µM | 50.5 ± 0.52 µM | 
O=C(O)c1sc(-c2ccc(OC(F)(F)F)cc2)cc1NC(=O)c1c(F)cccc1F [CID 53495055, 3-(2,6-Difluorobenzamido)-5-(4-(trifluoromethoxy)phenyl)thiophene-2-carboxylic acid] |  | 13 µM | 13 ± 4.6 µM | 3.91 | 1.35 µM | 51 ± 2.62 µM | 
O=C(Nc1ccncc1)c1ccc2ncsc2c1 [DU003, N-pyridin-4-yl-1,3-benzothiazole-6-carboxamide] | ~80% |  |  |  |  |  | inhibition at 10 µM [5]: 58%; Sensitivity of UTI89 to pooled human serum (MTT) (E. coli UTI89): further increased serum-mediated killing; also recorded: significantly more sensitive; Whole-cell anti-K1 dot blot reactivity (K1 antigen of UTI89): reduces K1 reactive material to levels comparable to those of genetic capsule mutants; Inhibition across off-target panel (panel of 68 receptors): < 30%
C=C(CC)C(=O)c1ccc(OCC(=O)O)c(Cl)c1Cl [ethacrynic acid, Ethacrynic acid] |  |  |  |  |  |  | Stability to DTT ([6]; 50 μM DTT): even more rapidly; Stability to glutathione ([6]; 50 μM GSH): react rapidly
